Laboratory results published in patent US11851430B1, “Pyrido[4,3-B]indole-7-carboxylic acid compounds as CK2 inhibitors” (KING FAISAL UNIVERSITY, priority 2023, dated 2023).

Experiments:
[1] = test system: H1299 (lung) cancer cells; assay: In vitro cytotoxic activity (MTT) assay, H1299; type: cell-based; conditions: Homo sapiens, NCI-H1299, exposed for 96 hours, read-out: IC50, inhibition of cell proliferation, H1299 (lung)
Procedure: (§1) Compounds 1-12 were screened for their in vitro cytotoxic activity utilizing a 3-(4,5-dimethyl-thiazol-2-yl)-2,5-diphenyltetrazolium bromide (MTT) assay against selected cancer human cell lines consisting of PC3 (prostate), HCT116 (colon), A375 (melanoma), H1299 (lung), MIAPaCa-2 (pancreas), HL60 (leukemia), MCF7 (breast), MDA-MB-231 (breast) (T. Mosmann, J. Immunol. Meth., 1983, 65, 55-63). The cells were cultured at 37° C. in RMPI1640 medium supplemented with 10% fetal bovine serum, 50 IU/mL penicillin, and 50 μg/mL streptomycin in a 5% CO2 incubator. All cells were sub-cultured 3 times/week by trypsinisation. Viable cells were seeded and allowed to adhere for 12 h before a test drug was added in 96-well plates at an initial density of 1.0×10^5 cells/mL. Tumour cell lines were separately exposed to various concentrations of the tested compounds followed by incubation at a temperature of 37° C. during 96 h inside a medium of fresh RMPI 1640. Cells were subsequently incubated at 37° C. using MTT at 0.5 mg/mL during 4 h. After removal of supernatant, formazan crystals were dissolved in isopropanol and the optical density was measured at 570 nm. CX-4945 was used as a positive control.

[2] = test system: A375 (melanoma) cancer cells; assay: In vitro cytotoxic activity (MTT) assay, A375; type: cell-based; conditions: Homo sapiens, A-375, exposed for 96 hours, read-out: IC50, inhibition of cell proliferation, A375 (melanoma)
Procedure: as §1

[3] = target: T1, recombinant human CK2 (RRββ-holoenzyme) (Homo sapiens, UniProt P68400); assay: CK2 kinase assay (radiometric, [γ-33P]ATP); type: biochemical; conditions: final ATP 15 μM, 10 min at 30° C., eight concentrations; read-out: IC50, protein kinase CK2 activity
T1 construct: purchased Millipore
T1 sequence (P68400 whole entry): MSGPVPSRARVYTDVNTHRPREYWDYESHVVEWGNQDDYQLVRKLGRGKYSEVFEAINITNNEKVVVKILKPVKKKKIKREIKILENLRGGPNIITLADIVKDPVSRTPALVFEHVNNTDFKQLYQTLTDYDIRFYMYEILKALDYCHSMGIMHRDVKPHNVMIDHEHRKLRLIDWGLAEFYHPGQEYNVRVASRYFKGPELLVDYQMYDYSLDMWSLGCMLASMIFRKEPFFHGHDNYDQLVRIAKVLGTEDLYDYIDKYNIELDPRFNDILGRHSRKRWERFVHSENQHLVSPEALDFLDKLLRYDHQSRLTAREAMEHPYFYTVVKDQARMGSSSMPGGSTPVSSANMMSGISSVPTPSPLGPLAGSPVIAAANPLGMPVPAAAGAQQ
T1 sequence (P67870 whole entry partner): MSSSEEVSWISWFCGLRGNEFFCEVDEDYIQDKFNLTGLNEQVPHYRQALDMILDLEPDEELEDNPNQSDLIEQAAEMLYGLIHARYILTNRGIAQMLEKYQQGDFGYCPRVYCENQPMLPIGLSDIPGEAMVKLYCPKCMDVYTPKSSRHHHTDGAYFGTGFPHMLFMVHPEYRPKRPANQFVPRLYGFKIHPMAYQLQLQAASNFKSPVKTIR
Procedure: CK2 Kinase Assay was conducted using the protocol as described in Pierre F. et al; J. Med. Chem. 2011, 54, 635-654. The tested compounds in aqueous solution were added at a volume of 10 μL to a reaction mixture comprising 10 μL of assay dilution buffer (ADB; 20 mM MOPS, pH 7.2, 25 mM β-glycerol phosphate, 5 mM EGTA, 1 mM sodium orthovanadate, and 1 mM dithiothreitol), 10 μL of substrate peptide (RRRDDDSDDD, dissolved in ADB at a concentration of 1 mM), 10 μL of recombinant human CK2 (RRββ-holoenzyme, 25 ng dissolved in ADB; Millipore). Reactions were initiated by the addition of 10 μL of ATP solution (90% 75 mMMgCl2, 75 μM ATP (final ATP concentration:15 μM) dissolved in ADB; 10% [γ-33P] ATP (stock 1 mCi/100 μL; 3000 Ci/mmol (Perkin-Elmer) and maintained for 10 min at 30° C. The reactions were quenched with 100 μL of 0.75% phosphoric acid and then transferred to and filtered through a phosphor cellulose filter plate (Millipore). After washing each well five times with 0.75% phosphoric acid, the plate was dried under vacuum for 5 min and, following the addition of 15 μL of scintillation fluid to each well, the residual radioactivity was measured using a Wallac luminescence counter. The IC50 values were derived from eight concentrations of test inhibitors.

[4] = test system: HL60 (leukemia) cancer cells; assay: In vitro cytotoxic activity (MTT) assay, HL60; type: cell-based; conditions: Homo sapiens, HL-60, exposed for 96 hours, read-out: IC50, inhibition of cell proliferation, HL60 (leukemia)
Procedure: as §1

[5] = test system: MDA-MB-231 (breast) cancer cells; assay: In vitro cytotoxic activity (MTT) assay, MDA-MB-231; type: cell-based; conditions: Homo sapiens; MDA-MB-231 cells, exposed for 96 hours; read-out: IC50, inhibition of cell proliferation, MDA-MB-231 (breast)
Procedure: as §1

[6] = test system: PC3 (prostate) cancer cells; assay: In vitro cytotoxic activity (MTT) assay, PC3; type: cell-based; conditions: Homo sapiens, PC-3, exposed for 96 hours, read-out: IC50, inhibition of cell proliferation, PC3 (prostate)
Procedure: as §1

[7] = test system: MCF7 (breast) cancer cells; assay: In vitro cytotoxic activity (MTT) assay, MCF7; type: cell-based; conditions: Homo sapiens, exposed for 96 hours, read-out: IC50, inhibition of cell proliferation, MCF7 (breast)
Procedure: as §1

[8] = test system: MIAPaCa-2 (pancreas) cancer cells; assay: In vitro cytotoxic activity (MTT) assay, MIAPaCa-2; type: cell-based; conditions: Homo sapiens, MIA PaCa-2; MIAPaCa-2 cells, exposed for 96 hours; read-out: IC50, inhibition of cell proliferation, MIAPaCa-2 (pancreas)
Procedure: as §1

[9] = test system: HCT116 (colon) cancer cells; assay: In vitro cytotoxic activity (MTT) assay, HCT116; type: cell-based; conditions: Homo sapiens, HCT-116, exposed for 96 hours, read-out: IC50, inhibition of cell proliferation, HCT116 (colon)
Procedure: as §1

IC50 [3]: 0.036 µM
SMILES: O=C(O)c1ccc2c3cnccc3n(C(=O)c3cccc(Cl)c3)c2c1 [Compound (7), 5-(3-chlorobenzoyl)-5H-pyrido[4,3-b]indole-7-carboxylic acid]
IC50 [1]: 1.1 µM
IC50 [2]: 4.4 µM
IC50 [4]: 1.7 µM
IC50 [5]: 3.6 µM
IC50 [6]: 0.9 µM
IC50 [7]: 5.2 µM
IC50 [8]: 2.3 µM
IC50 [9]: 1.6 µM
